Experimental data from the supplement of paper PMC10307832.

Assays:
Assay in all cases: relative viability (nuclei count vs DMSO), 5 days (fraction); higher = more cells survive
EKVX = tested on: EKVX
Procedure, shortened: (§1)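 For relative viability, nuclei counts in treated wells were divided by those in vehicle wells. Lung cancer cell lines had been pin-tool dosed in 1536-well plates the day after seeding and cultured for 5 days, then fixed and stained in one step (final 0.05% Triton X-100, 1% formaldehyde, 1 ug/ml Hoechst) and imaged at 4×. Doses were one drug alone or a fixed anchor-drug dose plus five library-drug doses (not always all listed) in √10 steps, and values are duplicate-plate medians.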

COR-L 105 = tested on: COR-L 105
Procedure, shortened: as §1

HCC-366 = tested on: HCC-366
Procedure, shortened: as §1

NCI-H1437 = tested on: NCI-H1437
Procedure, shortened: as §1

BEN = tested on: BEN
Procedure, shortened: as §1

LOU-NH91 = tested on: LOU-NH91
Procedure, shortened: as §1

PC-14 = tested on: PC-14
Procedure, shortened: as §1

HARA = tested on: HARA
Procedure, shortened: as §1

NCI-H441 = tested on: NCI-H441
Procedure, shortened: as §1

NCI-H460 = tested on: NCI-H460
Procedure, shortened: as §1

NCI-H1650 = tested on: NCI-H1650
Procedure, shortened: as §1

CAL-12T = tested on: CAL-12T
Procedure, shortened: as §1

NCI-H1666 = tested on: NCI-H1666
Procedure, shortened: as §1

NCI-H661 = tested on: NCI-H661
Procedure, shortened: as §1

NCI-H2009 = tested on: NCI-H2009
Procedure, shortened: as §1

201T = tested on: 201T
Procedure, shortened: as §1

NCI-H3122 = tested on: NCI-H3122
Procedure, shortened: as §1

LK-2 = tested on: LK-2
Procedure, shortened: as §1

NCI-H2170 = tested on: NCI-H2170
Procedure, shortened: as §1

SW 900 = tested on: SW 900
Procedure, shortened: as §1

COc1cc2nccc(Oc3ccc(NC(=O)Nc4cc(C)on4)c(Cl)c3)c2cc1OC [Tivozanib] + Nc1nc2[nH]cc(CCc3ccc(C(=O)N[C@@H](CCC(=O)O)C(=O)O)cc3)c2c(=O)[nH]1 [Pemetrexed] (partner 0.2 µM) showed a relative viability (EKVX; first compound 0.005 µM) of 0.377, a relative viability (EKVX; first compound 0.01581 µM) of 0.408 and a relative viability (EKVX; first compound 0.05 µM) of 0.394. The relative viability (EKVX; first compound 0.1581 µM) was 0.432, the relative viability (EKVX; first compound 0.5 µM) was 0.355 and the relative viability (COR-L 105; first compound 0.005 µM) was 0.919. The relative viability (COR-L 105; first compound 0.01581 µM) was 1.08, the relative viability (COR-L 105; first compound 0.05 µM) was 1.34 and the relative viability (COR-L 105; first compound 0.1581 µM) was 1.13. For the same compound, the relative viability (COR-L 105; first compound 0.5 µM) was 1.27, the relative viability (HCC-366; first compound 0.005 µM) was 0.16 and the relative viability (HCC-366; first compound 0.01581 µM) was 0.192. For the same compound, the relative viability (HCC-366; first compound 0.05 µM) was 0.162, the relative viability (HCC-366; first compound 0.1581 µM) was 0.234 and the relative viability (HCC-366; first compound 0.5 µM) was 0.126. For the same compound, the relative viability (NCI-H1437; first compound 0.005 µM) was 0.251, the relative viability (NCI-H1437; first compound 0.01581 µM) was 0.287 and the relative viability (NCI-H1437; first compound 0.05 µM) was 0.366. The relative viability (NCI-H1437; first compound 0.1581 µM) was 0.313, the relative viability (NCI-H1437; first compound 0.5 µM) was 0.31 and the relative viability (BEN; first compound 0.005 µM) was 0.647. The relative viability (BEN; first compound 0.01581 µM) was 0.858, the relative viability (BEN; first compound 0.05 µM) was 0.834 and the relative viability (BEN; first compound 0.1581 µM) was 0.397. It also gave a relative viability (BEN; first compound 0.5 µM) of 0.689, a relative viability (LOU-NH91; first compound 0.005 µM) of 0.341 and a relative viability (LOU-NH91; first compound 0.01581 µM) of 0.364. The relative viability (LOU-NH91; first compound 0.05 µM) was 0.371, the relative viability (LOU-NH91; first compound 0.1581 µM) was 0.525 and the relative viability (LOU-NH91; first compound 0.5 µM) was 0.338. The relative viability (PC-14; first compound 0.005 µM) was 0.124, the relative viability (PC-14; first compound 0.01581 µM) was 0.138 and the relative viability (PC-14; first compound 0.05 µM) was 0.129. For the same compound, the relative viability (PC-14; first compound 0.1581 µM) was 0.155, the relative viability (PC-14; first compound 0.5 µM) was 0.115 and the relative viability (HARA; first compound 0.005 µM) was 0.275. The relative viability (HARA; first compound 0.01581 µM) was 0.259, the relative viability (HARA; first compound 0.05 µM) was 0.249 and the relative viability (HARA; first compound 0.1581 µM) was 0.243. For the same compound, the relative viability (HARA; first compound 0.5 µM) was 0.245, the relative viability (NCI-H441; first compound 0.005 µM) was 0.245 and the relative viability (NCI-H441; first compound 0.01581 µM) was 0.296. The relative viability (NCI-H441; first compound 0.05 µM) was 0.246, the relative viability (NCI-H441; first compound 0.1581 µM) was 0.249 and the relative viability (NCI-H441; first compound 0.5 µM) was 0.239. It also gave a relative viability (NCI-H460; first compound 0.005 µM) of 0.0664, a relative viability (NCI-H460; first compound 0.01581 µM) of 0.0619 and a relative viability (NCI-H460; first compound 0.05 µM) of 0.0637. It also gave a relative viability (NCI-H460; first compound 0.1581 µM) of 0.063, a relative viability (NCI-H460; first compound 0.5 µM) of 0.0689 and a relative viability (NCI-H1650; first compound 0.005 µM) of 0.362. For the same compound, the relative viability (NCI-H1650; first compound 0.01581 µM) was 0.342, the relative viability (NCI-H1650; first compound 0.05 µM) was 0.384 and the relative viability (NCI-H1650; first compound 0.1581 µM) was 0.309. For the same compound, the relative viability (NCI-H1650; first compound 0.5 µM) was 0.354, the relative viability (CAL-12T; first compound 0.005 µM) was 1.25 and the relative viability (CAL-12T; first compound 0.01581 µM) was 1.15. For the same compound, the relative viability (CAL-12T; first compound 0.05 µM) was 1.13, the relative viability (CAL-12T; first compound 0.1581 µM) was 1.13 and the relative viability (CAL-12T; first compound 0.5 µM) was 1.12. The relative viability (NCI-H1666; first compound 0.005 µM) was 0.829, the relative viability (NCI-H1666; first compound 0.01581 µM) was 0.877 and the relative viability (NCI-H1666; first compound 0.05 µM) was 0.932. The relative viability (NCI-H1666; first compound 0.1581 µM) was 0.797, the relative viability (NCI-H1666; first compound 0.5 µM) was 0.75 and the relative viability (NCI-H661; first compound 0.005 µM) was 0.887. For the same compound, the relative viability (NCI-H661; first compound 0.01581 µM) was 0.928, the relative viability (NCI-H661; first compound 0.05 µM) was 0.922 and the relative viability (NCI-H661; first compound 0.1581 µM) was 0.909. It also gave a relative viability (NCI-H661; first compound 0.5 µM) of 0.854, a relative viability (NCI-H2009; first compound 0.005 µM) of 0.994 and a relative viability (NCI-H2009; first compound 0.01581 µM) of 1.04. The relative viability (NCI-H2009; first compound 0.05 µM) was 0.995, the relative viability (NCI-H2009; first compound 0.1581 µM) was 1.06 and the relative viability (NCI-H2009; first compound 0.5 µM) was 0.933. It also gave a relative viability (201T; first compound 0.005 µM) of 0.314, a relative viability (201T; first compound 0.01581 µM) of 0.319 and a relative viability (201T; first compound 0.05 µM) of 0.351. The relative viability (201T; first compound 0.1581 µM) was 0.351, the relative viability (201T; first compound 0.5 µM) was 0.367 and the relative viability (NCI-H3122; first compound 0.005 µM) was 0.197. It also gave a relative viability (NCI-H3122; first compound 0.01581 µM) of 0.222, a relative viability (NCI-H3122; first compound 0.05 µM) of 0.198 and a relative viability (NCI-H3122; first compound 0.1581 µM) of 0.204. It also gave a relative viability (NCI-H3122; first compound 0.5 µM) of 0.19, a relative viability (LK-2; first compound 0.005 µM) of 0.254 and a relative viability (LK-2; first compound 0.01581 µM) of 0.258. The relative viability (LK-2; first compound 0.05 µM) was 0.289, the relative viability (LK-2; first compound 0.1581 µM) was 0.203 and the relative viability (LK-2; first compound 0.5 µM) was 0.197. For the same compound, the relative viability (NCI-H2170; first compound 0.005 µM) was 0.24, the relative viability (NCI-H2170; first compound 0.01581 µM) was 0.262 and the relative viability (NCI-H2170; first compound 0.05 µM) was 0.56. For the same compound, the relative viability (NCI-H2170; first compound 0.5 µM) was 0.255, the relative viability (SW 900; first compound 0.005 µM) was 0.463 and the relative viability (SW 900; first compound 0.01581 µM) was 0.465. The relative viability (SW 900; first compound 0.05 µM) was 0.507 and the relative viability (SW 900; first compound 0.5 µM) was 0.493.
